# From patent US10428018B2, “ROR gamma (RORy) modulators” (LEAD PHARMA HOLDING B.V., priority 2015, dated 2019)
# Molecular target: T1, RORγ (Homo sapiens, UniProt P51449)
# T1 construct: expressed in transfected cells; host or cells: 293FT cells (Invitrogen), expression vector pFN26A (Promega)
# T1 sequence (P51449 269-508 limits assumed): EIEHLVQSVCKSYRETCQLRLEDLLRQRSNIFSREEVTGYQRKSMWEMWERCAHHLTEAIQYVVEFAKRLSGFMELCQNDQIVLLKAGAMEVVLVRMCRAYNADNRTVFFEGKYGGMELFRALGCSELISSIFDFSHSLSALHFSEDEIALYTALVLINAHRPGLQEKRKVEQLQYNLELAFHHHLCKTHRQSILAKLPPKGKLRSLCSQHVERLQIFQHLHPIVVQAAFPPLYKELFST
# Experiment: RORγ GAL4 reporter gene assay (luciferase readout, 293FT cells)
# Format: cell-based
# Settings: inhibition of RORγ (GAL4-RORγ-LBD) luciferase signal in transfected 293FT cells, overnight incubation; read-out: mean pIC50 (converted)
# Protocol: Example inhibitors 1-45 were tested for their ability to inhibit RORγ activity in a RORγ GAL4 reporter gene assay.
# The RORγ ligand-binding domain (LBD) was fused to the yeast GAL4 DNA binding domain (DBD) and placed under the control of the human cytomegalovirus (CMV) immediate early promoter, using expression vector pFN26A (Promega) and standard recombinant DNA cloning methods.
# To monitor the inhibitory effect of compounds on RORγ, a transcriptional reporter construct was used. The pGL4.35 vector (Promega) contains nine copies of the GAL4 Upstream Activator Sequence (UAS). This sequence drives the transcription of the luciferase reporter gene luc2P in response to binding of a fusion protein containing the GAL4 DNA binding domain, as for example expressed by the GAL4-RORγ-LBD and GAL4-VP16 expression vectors described above.
# The day after transfection, cells were plated into 96 well plates, test compound was added and the plates were incubated overnight. Subsequently, the firefly luciferase activity was quantified using luciferase detection reagent and luminescence readout.
# 1500 μL of this reagent mixture was added to 5 μg of GAL4 fusion protein expression vector and 5 μg of the transcriptional reporter construct, and incubated at RT for 20 minutes.
# Subsequently, the cells were washed with Phosphate Buffered Saline (PBS) (Lonza), after which the PBS was removed. To dissociate the cells, 1 ml of TrypLE Express (Invitrogen) was added to the flask, followed by incubation at RT until the cells visually started to detach. Cells were collected in 5 mL of assay medium (DMEM culture medium (Lonza), 10% dialyzed FBS (Invitrogen) and Pen/Strep (Lonza)) to achieve a single cell suspension. 10×10^6 cells were spun down and re-suspended in 10 mL of assay medium.
# For compound screening, the cells were harvested (as described above) and counted. […] 80 μL of cell suspension (60,000 cells) was plated per well into a white, flat bottom, tissue culture treated, 96 well screening plates (Greiner).
# Subsequently, these solutions were diluted to 5× the final test concentration in two 10-fold-dilution steps in assay medium. The final DMSO concentration of the 5× test compound solution was 1%. 20 μL of the 5× test compound solution was added to each test well of the 96 well plate previously plated with 80 μl cell suspension, resulting in the final test concentration with 0.2% DMSO.
# For the luciferase readout, the luciferase reagent (Britelite Plus, Perkin Elmer) was brought to RT. To each test well of the screening plates, 100 μL of 2.5-fold diluted Britelite Plus reagent was added, followed by incubation at RT for 10 minutes. The luciferase luminescence signal was measured using a Wallac Victor Microplate Reader (Perkin Elmer).
row,Structure (SMILES),IC50
1,"CCS(=O)(=O)c1ccc(CC(=O)Nc2ccc(C(=O)N(c3ccccn3)C3CCC3)cc2)cc1 [Example 41, N-cyclobutyl-4-{2-[4-(ethanesulfonyl)phenyl]acetamido}-N-(pyridin-2-yl)benzamide]",≤ 1000 nM
2,"CCS(=O)(=O)c1ccc(CC(=O)Nc2ccc(C(=O)N(C3CCC3)C3CCC3)cc2)cc1 [Example 35, N, N-dicyclobutyl-4-{2-[4-(ethanesulfonyl)phenyl]acetamido}benzamide]",≤ 1000 nM
3,"CCN(C(=O)c1ccc(NC(=O)Cc2ccc(S(=O)(=O)CC)cc2)cc1)c1cc(C)nn1C [Example 2, N-(1,3-dimethyl-1H-pyrazol-5-yl)-4-{2-[4-(ethanesulfonyl)phenyl]acetamido}-N-ethylbenzamide]",≤ 100 nM
4,"CCS(=O)(=O)c1ccc(CC(=O)Nc2ccc(C(=O)N(c3ccc(C)cc3)C(C)(C)CO)cc2)cc1 [Example 42, 4-{2-[4-(ethanesulfonyl)phenyl]acetamido}-N-(1-hydroxy-2-methylpropan-2-yl)-N-(4-methylphenyl)benzamide]",≤ 100 nM
5,"CCS(=O)(=O)c1ccc(CC(=O)Nc2ccc(C(=O)N(C)c3ccccn3)cc2)cc1 [Example 23, 4-{2-[4-(ethanesulfonyl)phenyl]acetamido}-N-methyl-N-(pyridin-2-yl)benzamide]",≤ 1000 nM
6,"CCS(=O)(=O)c1ccc(CC(=O)Nc2ccc(C(=O)N3CCCc4ccccc43)cc2)cc1 [Example 28, 2-[4-(ethanesulfonyl)phenyl]-N-[4-(1,2,3,4-tetrahydroquinoline-1-carbonyl)phenyl]acetamide]",≤ 100 nM
7,"CCN(C(=O)c1ccc(NC(=O)Cc2ccc(S(=O)(=O)CC)cc2)cc1)c1cc(C)no1 [Example 3, 4-{2-[4-(ethanesulfonyl)phenyl]acetamido}-N-ethyl-N-(3-methyl-1,2-oxazol-5-yl)benzamide]",≤ 100 nM
8,"CCN(C(=O)c1ccc(NC(=O)Cc2ccc(S(=O)(=O)CC)cc2)cc1)c1ccccc1 [Example 34, 4-{2-[4-(ethanesulfonyl)phenyl]acetamido}-N-ethyl-N-phenylbenzamide]",≤ 10 nM
9,"CCS(=O)(=O)c1ccc(CC(=O)Nc2ccc(C(=O)N(c3ccccc3)C(C)(C)C)cc2)cn1 [Example 44, N-tert-butyl-4-{2-[6-(ethanesulfonyl)pyridin-3-yl]acetamido}-N-phenylbenzamide]",≤ 100 nM
10,"CCS(=O)(=O)c1ccc(CC(=O)Nc2ccc(C(=O)N(C)c3cc(C)on3)cc2)cc1 [Example 1, 4-{2-[4-(ethanesulfonyl)phenyl]acetamido}-N-methyl-N-(5-methyl-1,2-oxazol-3-yl)benzamide]",≤ 1000 nM
11,"CCS(=O)(=O)c1ccc(CC(=O)Nc2ccc(C(=O)N(C)Cc3ccco3)cc2)cc1 [Example 37, 4-{2-[4-(ethanesulfonyl)phenyl]acetamido}-N-(furan-2-ylmethyl)-N-methylbenzamide]",≤ 1000 nM
12,"CCS(=O)(=O)c1ccc(CC(=O)Nc2ccc(C(=O)N(C)c3ccccc3)cc2)cc1 [Example 30, 4-{2-[4-(ethanesulfonyl)phenyl]acetamido}-N-methyl-N-phenylbenzamide]",≤ 100 nM
13,"CCCN(CC1CC1)C(=O)c1ccc(NC(=O)Cc2ccc(S(=O)(=O)CC)cc2)cc1 [Example 27, N-(cyclopropylmethyl)-4-{2-[4-(ethanesulfonyl)phenyl]acetamido}-N-propylbenzamide]",≤ 1000 nM
14,"CCS(=O)(=O)c1ccc(CC(=O)Nc2ccc(C(=O)N(Cc3ccccc3)Cc3ccccc3)cc2)cc1 [Example 38, N,N-dibenzyl-4-{2-[4-(ethanesulfonyl)phenyl]acetamido}benzamide]",≤ 100 nM
15,"CCN(C(=O)c1ccc(NC(=O)Cc2ccc(S(=O)(=O)CC)nc2)cc1F)c1ccccc1 [Example 43, 4-{2-[6-(ethanesulfonyl)pyridin-3-yl]acetamido}-N-ethyl-2-fluoro-N-phenylbenzamide]",≤ 1000 nM
16,"CCCN(Cc1ccccc1)C(=O)c1ccc(NC(=O)Cc2ccc(S(=O)(=O)CC)cc2)cc1 [Example 25, N-benzyl-4-{2-[4-(ethanesulfonyl)phenyl]acetamido}-N-propylbenzamide]",≤ 100 nM
17,"CCS(=O)(=O)c1ccc(CC(=O)Nc2ccc(C(=O)N3CCCC3c3ccccc3)cc2)cc1 (centres unmarked) [Example 29, 2-[4-(ethanesulfonyl)phenyl]-N-[4-(2-phenylpyrrolidine-1-carbonyl)phenyl]acetamide]",≤ 1000 nM
18,"CCS(=O)(=O)c1ccc(CC(=O)Nc2ccc(C(=O)N(C)Cc3ccccc3)cc2)cc1 [Example 26, N-benzyl-4-{2-[4-(ethanesulfonyl)phenyl]acetamido}-N-methylbenzamide]",≤ 1000 nM
19,"CCS(=O)(=O)c1ccc(CC(=O)Nc2ccc(C(=O)N(c3ccccn3)C3CC3)cc2)cc1 [Example 40, N-cyclopropyl-4-{2-[4-(ethanesulfonyl)phenyl]acetamido}-N-(pyridin-2-yl)benzamide]",≤ 1000 nM
20,"CCN(C(=O)c1ccc(NC(=O)Cc2ccc(S(=O)(=O)CC)cc2)nc1)c1ccccc1 [Example 24, 6-{2-[4-(ethanesulfonyl)phenyl]acetamido}-N-ethyl-N-phenylpyridine-3-carboxamide]",≤ 1000 nM
21,"CCS(=O)(=O)c1ccc(CC(=O)Nc2ccc(C(=O)N3CCCCC3c3ccccc3)cc2)cc1 (centres unmarked) [Example 33, 2-[4-(ethanesulfonyl)phenyl]-N-[4-(2-phenylpiperidine-1-carbonyl)phenyl]acetamide]",≤ 100 nM
22,"CCN(C(=O)c1ccc(NC(=O)Cc2ccc(S(=O)(=O)CC)cc2)cc1)c1cccnc1 [Example 32, 4-{2-[4-(ethanesulfonyl)phenyl]acetamido}-N-ethyl-N-(pyridin-3-yl)benzamide]",≤ 1000 nM
23,"CCCN(C(=O)c1ccc(NC(=O)Cc2ccc(S(=O)(=O)CC)cc2)cc1)c1cccnc1 [Example 31, 4-{2-[4-(ethanesulfonyl)phenyl]acetamido}-N-propyl-N-(pyridin-3-yl)benzamide]",≤ 100 nM
24,"CCS(=O)(=O)c1ccc(CC(=O)Nc2ccc(C(=O)N(c3ccccc3)C(C)(C)C3CCCO3)cc2)cc1 (centres unmarked) [Example 18, 4-{2-[4-(ethanesulfonyl)phenyl]acetamido}-N-[2-(oxolan-2-yl)propan-2-yl]-N-phenylbenzamide]",≤ 10 nM

# Test system: IL-17A production in anti-CD3/anti-CD28 stimulated peripheral blood mononuclear cells (PBMCs)
# Experiment: Peripheral blood mononuclear cell (PBMC) IL-17 assay
# Settings: Homo sapiens, 120 h, read-out:
# Protocol: This assay is designed to measure the levels of IL-17A secreted from anti-CD3/anti-CD28 stimulated PBMCs with the aim of measuring RORγ mediated inhibition of IL-17A production.
# The assay medium consists of 90% RPMI 1640 (Lonza), 10% heat inactivated fetal bovin serum (FBS, Lonza) and 100 U/mL penicillin/streptomycin solution.
# Anti-CD3 antibody (BD Pharmingen) was diluted to 10 μg/ml in PBS (Lonza). 30 μL of 10 μg/ml anti-CD3 solution was added to the inner 60 wells, excluding any negative control wells, of a 96-well cell culture treated U-bottom plate (Greiner). Plates were incubated overnight (16-24 hours) at 37° C. and 5% CO2.
# Peripheral blood mononuclear cells were separated from buffy coats (Sanquin) using Ficoll-Paque PREMIUM separation medium (GE Healthcare Life Sciences) according to manufacturer's protocol and re-suspended in assay medium at 37° C.
# Test compounds were diluted, starting from a 10 mM dimethylsulfoxide (DMSO) stock solution, to serial dilutions in DMSO at 200× the final test concentration. Subsequently, these solutions were diluted in two dilution steps in assay medium to 10× the final test concentration. The DMSO concentration of the 10× test compound solution was 5%.
# Anti-CD28 antibody (BD Pharmingen) was diluted to 20 μg/mL in PBS.
# For compound screening, the anti-CD3 coated plates were washed three times with PBS, the wells were subsequently aspirated using vacuum. To each screening well 80 μL of the PBMC suspension, 10 μL of the anti-CD28 solution and 10 μL of the 1 Ox test compound solution was added, resulting in the final test concentration with 0.5% DMSO. All outer wells were filled with assay medium to prevent evaporation. Plates were incubated for 5 days at 37° C. and 5% CO2.
# After incubation the plates were spun down at 1500 rpm for 4 minutes and the supernatant was collected. Subsequently, the IL-17A levels in the supernatants was determined using an IL-17 ELISA kit (human IL-17 DuoSet, R&D systems) according to manufacturer's protocol.
# The half maximum inhibitory concentration (IC50) values for the test compounds were calculated from the IL-17A signal using GraphPad Prism software (GraphPad Software).
row,Structure (SMILES),IC50
1,"CCN(C(=O)c1ccc(NC(=O)Cc2ccc(S(=O)(=O)CC)cc2)cc1)c1nc(C)c(C)s1 [Example 13, N-(4-methyl-5-methyl-1,3-thiazol-2-yl)-4-{2-[4-(ethanesulfonyl)phenyl]acetamido}-N-ethylbenzamide]",≤ 100 nM

# Same assay, conditions: Homo sapiens, 120 h, read-out: mean pIC50, inhibition of IL-17A secretion (ELISA), human PBMCs, anti-CD3/anti-CD28 stimulated, 5 days (converted)
row,Structure (SMILES),IC50
1,"CCS(=O)(=O)c1ccc(CC(=O)Nc2ccc(C(=O)N(c3ccc(C)cc3)C(C)(C)C3CCCO3)cc2)cc1 (centres unmarked) [Example 17, 4-{2-[4-(ethanesulfonyl)phenyl]acetamido}-N-(4-methylphenyl)-N-[2-(oxolan-2-yl)propan-2-yl]benzamide]",≤ 100 nM
2,"CCN(C(=O)c1ccc(NC(=O)Cc2ccc(S(=O)(=O)CC)cc2)cc1)c1cc(C)nn1C [Example 2, N-(1,3-dimethyl-1H-pyrazol-5-yl)-4-{2-[4-(ethanesulfonyl)phenyl]acetamido}-N-ethylbenzamide]",≤ 100 nM
3,"CCS(=O)(=O)c1ccc(CC(=O)Nc2ccc(C(=O)N(c3ccccc3)C(C)(C)C)cc2)cn1 [Example 44, N-tert-butyl-4-{2-[6-(ethanesulfonyl)pyridin-3-yl]acetamido}-N-phenylbenzamide]",≤ 100 nM
4,"CCCN(C(=O)c1ccc(NC(=O)Cc2ccc(S(=O)(=O)CC)cc2)cc1)c1cc(C)on1 [Example 5, 4-{2-[4-(ethanesulfonyl)phenyl]acetamido}-N-(5-methyl-1,2-oxazol-3-yl)-N-propylbenzamide]",≤ 100 nM
5,"CCCN(C(=O)c1ccc(NC(=O)Cc2ccc(S(=O)(=O)CC)cc2)cc1)c1cc(C)nn1C [Example 6, N-(1,3-dimethyl-1H-pyrazol-5-yl)-4-{2-[4-(ethanesulfonyl)phenyl]acetamido}-N-propylbenzamide]",≤ 100 nM
6,"CCS(=O)(=O)c1ccc(CC(=O)Nc2ccc(C(=O)N(c3ccccc3)C(C)(C)C3CCCO3)cc2)cc1 (centres unmarked) [Example 18, 4-{2-[4-(ethanesulfonyl)phenyl]acetamido}-N-[2-(oxolan-2-yl)propan-2-yl]-N-phenylbenzamide]",≤ 100 nM
7,"CCS(=O)(=O)c1ccc(CC(=O)Nc2ccc(C(=O)N(c3ccccc3)C3CC(F)(F)C3)cc2)cc1 [Example 21, N-(3,3-difluorocyclobutyl)-4-{2-[4-(ethanesulfonyl)phenyl]acetamido}-N-phenylbenzamide]",≤ 100 nM
